How the values were obtained:
[1] = tested on: non-ATL cell line, Jurkat; test: PARP inhibitor combination, cellular proliferation (MTS), Jurkat; format: cell-based, human; conditions: abacavir 10, 50 or 100 μM, 48 hours
Experimental: To an ATL cell line, ED40515 (−), or a non-ATL cell line, Jurkat, abacavir was added at a concentration of 0 μM (DMSO, was added instead of abacavir), 10 μM, 50 μM or 100 μM, and further a PARP inhibitor, olaparib, was added at a concentration of 0 μM (DMSO was added instead of olaparib), 1 μM, 10 μM, 100 μM or 1000 μM. The cells were cultured for 48 hours. MTS assay was performed using a reagent for cellular proliferation test, Aqueous One Solution Cell Proliferation (trade name, manufactured by Promega), in the same manner as in Example 1. The cellular proliferation was represented by a ratio relative to that of the control (solvent control) on Day 0 that was regarded as 1.

[2] = tested on: TDP1-knocked-down cells (Jurkat); test: Cellular proliferation (MTS) of TDP1-knocked-down cells; format: cell-based, human; conditions: TDP1 siRNA-introduced Jurkat versus control siRNA-introduced cells; 300 μM; 48 hours
Experimental: The cells were cultured for 48 hours. MTS assay was performed using a reagent for cellular proliferation test, Aqueous One Solution Cell Proliferation (trade name, manufactured by Promega), in the same manner as in Example 1.

[3] = tested on: DT40-derived mutants each lacking a DNA repair enzyme; test: Cellular proliferation of DT40-derived mutants (CellTiter-Glo ATP method); format: cell-based, chicken; conditions: 25 μM, 48 hours
From the text: This example used wild-type DT40, which is a chicken B cell-derived cell line, and DT40-devired mutants each lacking a DNA repair enzyme. Those cell lines are available from the laboratory of Radiation Genetics, Graduate School of Medicine and Faculty of Medicine Kyoto University (see, Literatures: (1) Mol Cell Biol. 2001 April; 21 (8): 2858-66. (2) PLoS Genet. 2011 July; 7 (7): e1002148. (3) Mol Cell Biol. 2008 October; 28 (19): 6113-22. (4) J Biol Chem. 2012 Apr. 13; 287 (16): 12848-57.).
Abacavir was added to the medium of each cell line at a final concentration of 25 μM. The cells were seeded on a 96-well plate at a concentration of 1×10^4 cells/100 μL/well and cultured for 48 hours. After the culture, cellular proliferation was determined by CellTiter-Glo Luminescent Cell Viability Assay (trade name, manufactured by Promega) in accordance with the ATP method.
Specifically, the value on the vertical axis is −1 when the proliferation rate compared to the wild-type is 50%, and −2 when the proliferation rate compared to the wild-type is 25%.

[4] = tested on: HTLV-1; conditions: Non Patent Literature 5; cited from earlier work
[5] = tested on: SYK-11L (+) (non-virus-producing ATL cell line); test: Cellular proliferation (MTS assay), SYK-11L (+); format: cell-based
Experimental: (§1) Each nucleoside analogue reverse transcriptase inhibitor was added to the medium for cells at a final concentration of 100 μM. Cells were seeded on a 96-well plate at a concentration of 1×10^4 cells/100 μL/well and cultured for 4 hours (Day 0), 48 hours (Day 2) or 96 hours (Day 4). A medium added DMSO (solvent control) alone was used as a control. Cellular proliferation was examined by MTS assay. Specifically, after the cells were cultured for a predetermined time, a reagent for cellular proliferation test, Aqueous One Solution Cell Proliferation (trade name, manufactured by Promega), was added to the cells. Four hours later, absorbance at 490 nm was measured. The cellular proliferation was represented by a ratio relative to that of the control (solvent control) on Day 0 that was regarded as 1.
(§2) This example used HTLV-1-infected cell lines (non-virus-producing ATL cell lines): ED40515 (−), ED40515 (+), and ATL43T (all were provided by Prof. Michiyuki Maeda who produced the cells); and SYK-11L (+) (prepared in the laboratory of the inventors).
(§3) The six types of nucleoside analogue reverse transcriptase inhibitors as used in Example 1 were used and cellular proliferation was examined in the same manner as in Example 1. […]

[6] = tested on: Jurkat (non-HTLV-1-infected cell line); test: Cellular proliferation (MTS assay), Jurkat; format: cell-based, human; conditions: 100 μM
Experimental: as §1
(§4) This example used non-HTLV-1-infected cell lines: Jurkat (cell line derived from human T-cell leukemia, ATCC No: TIB-152), Kit225 (cell line derived from chronic T-cell leukemia, established in the laboratory of the inventors, Blood. 1987 October; 70 (4): 1069-72.), H9 (cell line derived from cutaneous T-cell lymphoma, ATCC No: HTB-176) and SUDHL6 (cell line derived from diffuse B cell lymphoma).
(§5) The six types of nucleoside analogue reverse transcriptase inhibitors as used in Example 1 were used and cellular proliferation was examined in the same manner as in Example 1.

[7] = tested on: SUDHL6 (non-HTLV-1-infected cell line); test: Cellular proliferation (MTS assay), SUDHL6; format: cell-based; conditions: 100 μM
Experimental: as §1, §4, §5

[8] = tested on: HTLV-1; test: Measurement of amount of virus (HTLV-1 P19 ELISA), MT2; format: cell-based, human T-cell leukemia virus type 1; conditions: 100 μM, Day 0, 2, 4, 7, compared among six NRTIs
Experimental: (§6) HTLV-1-producing cell lines, MT2 (transformant with HTLV-1, JCRB cell No: JCRB1210) and HUT102 (ATL-derived cell line, ATCC No: TIB-162), were used.
(§7) Each nucleoside analogue reverse transcriptase inhibitor was added to the medium for cells at a final concentration of 100 μM. Cells were seeded on a 96-well plate at a concentration of 1×10^4 cells/100 μL/well and cultured for 0 hour (Day 0), 48 hours (2 days), 96 hours (4 days) or 168 hours (7 days). At each time point, the medium was collected. The amount of virus contained in the medium collected at each time point (pg/mL) was measured by HTLV-1 P19 ELISA kit (manufactured by Zeptometrix).

[9] = tested on: ATL43T (non-virus-producing ATL cell line); test: Cellular proliferation (MTS assay), ATL43T; format: cell-based
Experimental: as §1, §2, §3

[10] = tested on: HTLV-1; test: Measurement of amount of virus (HTLV-1 P19 ELISA), HUT102; format: cell-based, human T-cell leukemia virus type 1; conditions: 100 μM, Day 0, 2, 4, 7, compared among six NRTIs
Experimental: as §6, §7

Nc1nc(NC2CC2)c2ncn([C@H]3C=C[C@@H](CO)C3)c2n1 [abacavir, (−)-(1S,4R)-4-[2-amino-6-(cyclopropylamino)-9H-purin-9-yl]-2-cyclopentene-1-methanol]
cellular proliferation [1]: did not suppress cellular proliferation | cellular proliferation relative to abacavir-non-treated cells (100%) [2]: significantly lower | cellular proliferation relative to wild-type DT40 (Log2 Gene/WT) ([3]; DT40 mutant lacking BRCA1): showed a suppressive effect | cellular proliferation relative to wild-type DT40 (Log2 Gene/WT) ([3]; DT40 mutant lacking GEN1): showed a suppressive effect | cellular proliferation relative to wild-type DT40 (Log2 Gene/WT) ([3]; DT40 mutant lacking PCNA): showed a suppressive effect | cellular proliferation relative to wild-type DT40 (Log2 Gene/WT) ([3]; DT40 mutant lacking TDP1): showed a suppressive effect | cellular proliferation relative to wild-type DT40 (Log2 Gene/WT) ([3]; DT40 mutant lacking XRCC2): showed a suppressive effect | anti-HTLV-1 effect [4]: anti-HTLV-1 effect | cellular proliferation ([5]; 100 μM): strong suppressive effect | cellular proliferation, dose dependence ([5]; 10-100 μM, Day 0, 2, 4): suppressed cellular proliferation of all the cell lines in a dose-dependent manner | cellular proliferation [6]: did not exhibit a suppressive effect | cellular proliferation [7]: did not exhibit a suppressive effect | viral production (amount of virus in the medium) [8]: most strongly suppressed | cellular proliferation ([9]; 100 μM): strong suppressive effect | cellular proliferation, dose dependence ([9]; 10-100 μM, Day 0, 2, 4): suppressed cellular proliferation of all the cell lines in a dose-dependent manner | viral production (amount of virus in the medium) [10]: most strongly suppressed

Reference: patent US20160000796A1, “PHARMACEUTICAL COMPOSITION FOR USE IN PREVENTION OR TREATMENT OF CANCER” (priority 2013, published 2016)
